In assay [1] the test system is PSENdKO cells. Nature of the assay: Lysosomal Ca2+ content, Fura-2AM loaded cells challenged with GPN, PSENdKO cells. The class given is cell-based, mouse. Set-up: lysosomal Ca2+ content: dose or concentration left out as unconfirmed. The text has this:
Diluent treatment alone (in most cases DMSO, water for the cyclodextrin) was used as vehicle control.
Briefly, the web-based CRISPR design tool was used to select the sequence to be targeted in mouse PSEN1 and PSEN2 (i.e. 5′-[…]-3′ and 5′-[…]-3′, respectively). Oligo pairs encoding guide sequences (obtained from Integrated DNA Technologies, IDT) were annealed and ligated into the pX330 plasmid (Addgene) according to the Zhang's laboratory protocol (https://www.addgene.org/crispr/zhang/). MEF cells were then transfected with the pX330-PSEN1 and PX330-PSEN2, using Fugene HD (Promega), in accordance with the manufacturer protocol. Selection of PSENdKO clones was achieved through serial dilution and confirmed by WB analysis. Further depletion of APP in different PSENdKO clones was achieved through electroporation of RNP complexes. […]
Cells were rinsed three times and left to equilibrate for at least 15-20 min (RT). […] Briefly, cells were segmented manually and fluorescence intensities were measured over time. Fura-2 signals were corrected to obtain ΔF/F0 (F0 being the initial signal recorded). For each cell, the area under the curve, corresponding to the aforementioned stimulation, was measured using GraphPad Prism.

The test system of the next assay is Npc1-null cells. As to conditions: cited from earlier work.
Assay [2] relates to PSENdKO cells. Nature of the assay: Confocal immunofluorescence (compartment size, Mander's colocalization, filipin) in PSENdKO cells. The class given is cell-based, mouse. The method, then: For OSW-1 (30310-1, Sanbio/Cayman Chemical), cells were treated overnight with 10 nM. Diluent treatment alone (in most cases DMSO, water for the cyclodextrin) was used as vehicle control. KO cell lines: PSEN1 and 2 KO cell lines (PSENdKO) cell lines were established as described in ([…] al 2020). Briefly, the web-based CRISPR design tool was used to select the sequence to be targeted in mouse PSEN1 and PSEN2 ([NT] and [NT], respectively). Oligo pairs encoding guide sequences (obtained from Integrated DNA Technologies, IDT) were annealed and ligated into the pX330 plasmid (Addgene) according to the Zhang's laboratory protocol (https://www.addgene.org/crispr/zhang/). MEF cells were then transfected with the pX330-PSEN1 and PX330-PSEN2, using Fugene HD (Promega), in accordance with the manufacturer protocol. Selection of PSENdKO clones was achieved through serial dilution and confirmed by WB analysis. Further depletion of APP in different PSENdKO clones was achieved through electroporation of RNP complexes. Single guide RNA (sgRNAs) were designed to either target exon 2 ([NT]) or exon 3 ([NT]). The Neon Transfection System (ThermoFisher Scientific, one pulse, 1650 V, 20 ms) was used to electroporate 150 000 cells with 10 pmol of Cas 9 (IDT) and 20 pmol of single guide RNA (IDT). As above, cells were amplified and selection of independent APPKO clones was performed with serial dilutions and WB characterization. All clones of interest were sequenced using Sanger sequencing. […] Primary antibodies diluted in the same blocking buffer were incubated overnight at 4° C. Following PBS washing steps, (goat- or donkey-) secondary antibodies conjugated with Alexa fluor dyes (Alexa 488, 568, or 647, all ThermoFisher Scientific) diluted in the blocking buffer were incubated for 1 h, RT. Coverslips were then mounted with Mowiol (Sigma). When cholesterol labelling was performed, fixed cells were treated with 200 μg·ml-1 filipin (F4767, Sigma) for 2 h at RT, prior to permeabilization. Acquisition: Z stack images (spacing 2 μm), or a median plan were acquired on a Nikon 1AR connected to an inverse Nikon Ti-2000 equipped with an oil-immersion plan APO 60× objective lenses with 1.40 NA. Data were collected using Nikon Imaging Software. […] Image analysis: All image analysis was done using Image J software (Schindelin et al 2012; Schneider et al 2012). To measure the area of the organelle of interest (early endosomes-EEA1; lysosomes-Lamp1; retromer-VPS35 . . . ), segmentation was realized using automatic thresholding. The following masks were used: Mean (EEA1), Ostu (Lamp1), Intermodes (VPS35). Overlap of signal of interests were quantified with Manders colocalisation index (Plugin Jacob, (Bolte and Cordelieres 2006)). When indicated, co-localization data was normalized to the reference group for multiple comparisons.

In another assay the test system is Npc1 cats. To be noted: intrathecal 120 mg every 2 weeks; cited from earlier work.
The test system of assay [3] is cultured skin fibroblasts of NPC patients. To be noted: cited from earlier work.
For another assay, the system named is lysosomal exocytosis. As to conditions: cited from earlier work.
Another assay relates to Npc1 mice. As to conditions: oral; cited from earlier work.
For the next assay, the system named is NPC patients. To be noted: clinical trials; cited from earlier work.
In the next assay the test system is cats. To be noted: cited from earlier work.
Assay [4] concerns NPC1−/− neural stem cells. As to conditions: cited from earlier work.
Setting [5] is: overnight, 10 nM, data not shown.

Regarding 2-hydroxypropyl-γ-cyclodextrin [HPγCD], the “lysosomal Ca2+ content” value in the assay on PSENdKO cells [1] (4 days) is given as “fully restored lysosomal Ca2+ content”. The “intracellular free cholesterol levels and lysosome changes” value in the assay with Npc1-null cells was “reduce intracellular free cholesterol levels and normalize the lysosome changes”. In addition, in the assay on PSENdKO cells [2] (1 mM, 4 days), the EEA1 area result is on record as “reduced EEA1 area”, the “accumulation of membrane-tethered APP fragments in Lamp1-positive LE/Lys” value is reported as “strongly reduced”, the “colocalization of VPS35 with Lamp1” value is “decreased colocalization of VPS35” and the “filipin staining in Lamp1-positive LE/Lys” value is listed as “Reduced filipin staining”.
With “2-Hydroxypropyl-beta-cyclodextrin [HP-beta-CD]”, the “neurological dysfunction and lipid accumulation in neurons” value with Npc1 cats was “reduced neurological dysfunction and lipid accumulation in neurons”.
Consider `O=C(CCCCCCC(=O)Nc1ccccc1)NO` [Vorinostat, suberanilohydroxamic acid], for which the “accumulation of lipids in the lysosomes” value in [3] is listed as “reduces the accumulation of lipids in the lysosomes”.
With `O=c1c(-c2ccc(O)cc2)coc2cc(O)cc(O)c12` [Genistein], the “lysosomal exocytosis and cholesterol accumulation” value in the assay on lysosomal exocytosis is on record as “increase lysosomal exocytosis with a decrease in cholesterol accumulation”.
Regarding `CCCCN1C[C@H](O)[C@@H](O)[C@H](O)[C@H]1CO` [Miglustat, N-butyl-deoxynojirimycin], in the assay on Npc1 mice, the “accumulation of gangliosides in the brain” value is reported as “reduced the accumulation of gangliosides in the brain”, the increase of lifespan result is “approximately 33%” and the “neurological progression of the disease” value is listed as “slowed the neurological progression of the disease”. Moreover, the “neurological outcome (e.g. dysphagia, supranuclear gaze palsy)” value with NPC patients is “neurological improvement or stabilization”. For the same compound, in the assay with cats, the “accumulation of gangliosides in the brain” value was “reduced accumulation of gangliosides in the brain”, the increase of lifespan result is “approximately 74%” and the “onset of neurological symptoms” value was “delayed onset of neurological symptoms”.
For the compound `COc1ccc(C(=O)O[C@H]2[C@H](O[C@@H]3[C@@H](OC(C)=O)[C@H](O[C@H]4C[C@H]5[C@@H]6CC=C7C[C@@H](O)CC[C@]7(C)[C@H]6CC[C@]5(C)[C@@]4(O)[C@H](C)C(=O)CCC(C)C)OC[C@@H]3O)OC[C@@H](O)[C@@H]2O)cc1` [OSW-1], in the assay with PSENdKO cells [1] (setting [5]), the “lysosomal Ca2+ dysfunction” value is listed as “nor did it rescue lysosomal Ca2+ dysfunction”. In addition, the lysosomal cholesterol staining result in the assay on PSENdKO cells [2] (setting [5]) is on record as “did not decrease lysosomal cholesterol staining”.
Turning to `CCCC(CCC)C(=O)O` [Valproic acid], the “benefit in NPC1−/− neural stem cells” value in [4] was “some benefit”.

The values above are taken from patent US20250027956A1, “Improved Gamma-Secretase Inhibitor Screening Assays” (VIB VZW, priority 2021, published 2025).
